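Briefly, cells in 96-well plates were exposed to five compound concentrations for 48 h, and endpoints were estimated by linear interpolation. GI50 = concentration required for 50% inhibition of growth. The concentration for full growth arrest is given as TGI.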
Tests used:
Test in all cases: NCI anticancer screen, dose series, 48 h
MDA-MB-435 = system: MDA-MB-435
OVCAR-3 ovarian = system: OVCAR-3 ovarian
HS 578T breast = system: HS 578T breast
UACC-257 melanoma = system: UACC-257 melanoma
CAKI-1 renal = system: CAKI-1 renal
SW-620 colon = system: SW-620 colon
T-47D breast = system: T-47D breast
MOLT-4 leukemia = system: MOLT-4 leukemia
DU-145 prostate = system: DU-145 prostate
UO-31 renal = system: UO-31 renal
SK-OV-3 ovarian = system: SK-OV-3 ovarian
786-0 renal = system: 786-0 renal
SF-539 CNS = system: SF-539 CNS
A549 NSCLC = system: A549 NSCLC
OVCAR-8 ovarian = system: OVCAR-8 ovarian
NCI-H23 lung = system: NCI-H23 lung
NCI-H460 lung = system: NCI-H460 lung
SK-MEL-2 melanoma = system: SK-MEL-2 melanoma
LOX IMVI melanoma = system: LOX IMVI melanoma
CCRF-CEM leukemia = system: CCRF-CEM leukemia
RPMI-8226 leukemia = system: RPMI-8226 leukemia
SR leukemia = system: SR leukemia
EKVX NSCLC = system: EKVX NSCLC
HCT-15 colon = system: HCT-15 colon
SNB-75 CNS = system: SNB-75 CNS
MALME-3M melanoma = system: MALME-3M melanoma
RXF 393 renal = system: RXF 393 renal
SNB-19 CNS = system: SNB-19 CNS
PC-3 prostate = system: PC-3 prostate
OVCAR-5 ovarian = system: OVCAR-5 ovarian
HOP-62 NSCLC = system: HOP-62 NSCLC
SF-295 CNS = system: SF-295 CNS
MCF7 breast = system: MCF7 breast
HT29 colon = system: HT29 colon
NCI-H226 lung = system: NCI-H226 lung
A498 renal = system: A498 renal
HOP-92 NSCLC = system: HOP-92 NSCLC
NCI/ADR-RES ovarian = system: NCI/ADR-RES ovarian
KM12 colon = system: KM12 colon
COLO 205 colon = system: COLO 205 colon
HL-60(TB) leukemia = system: HL-60(TB) leukemia
HCT-116 colon = system: HCT-116 colon
MDA-MB-231 breast = system: MDA-MB-231 breast
TK-10 renal = system: TK-10 renal
ACHN renal = system: ACHN renal
M14 melanoma = system: M14 melanoma
U251 CNS = system: U251 CNS
NCI-H522 lung = system: NCI-H522 lung
OVCAR-4 ovarian = system: OVCAR-4 ovarian
SF-268 CNS = system: SF-268 CNS
IGROV1 ovarian = system: IGROV1 ovarian
BT-549 breast = system: BT-549 breast

For `COc1ccc2c(O)c(/C=C3\N=Nc4ccccc43)oc2c1C[C@@H]1CCNC[C@H]1F`, which GI50 (MDA-MB-435) is on record?
The GI50 was 11.3 µM.

What about the TGI (MDA-MB-435) of the same compound?
The TGI was 24.4 µM.

What about the GI50 (OVCAR-3 ovarian) of the same compound?
The GI50 was 1.99 µM.

What about the TGI (OVCAR-3 ovarian) of the same compound?
The TGI was 3.98 µM.

And the GI50 (HS 578T breast)?
The GI50 was 10.3 µM.

And the TGI (HS 578T breast)?
Its TGI is 28.7 µM.

And the GI50 (UACC-257 melanoma)?
The GI50 was 16.2 µM.

And the TGI (UACC-257 melanoma)?
The TGI was 32 µM.

And the GI50 (CAKI-1 renal)?
The GI50 was 12.3 µM.

And the TGI (CAKI-1 renal)?
Its TGI is 25 µM.

What about the GI50 (SW-620 colon) of the same compound?
The GI50 was 2.51 µM.

And the TGI (SW-620 colon)?
The TGI was 11.7 µM.

And the GI50 (T-47D breast)?
The GI50 was 18.5 µM.

And the TGI (T-47D breast)?
Its TGI is 40.8 µM.

What about the GI50 (MOLT-4 leukemia) of the same compound?
The GI50 was 4.5 µM.

What about the TGI (MOLT-4 leukemia) of the same compound?
The TGI was 21.1 µM.

And the GI50 (DU-145 prostate)?
The GI50 was 11.2 µM.

And the TGI (DU-145 prostate)?
The TGI was 23.7 µM.

And the GI50 (UO-31 renal)?
The GI50 was 7.55 µM.

And the TGI (UO-31 renal)?
Its TGI is 22.1 µM.

And the GI50 (SK-OV-3 ovarian)?
Its GI50 is 17.2 µM.

What about the TGI (SK-OV-3 ovarian) of the same compound?
Its TGI is 31.7 µM.

And the GI50 (786-0 renal)?
The GI50 was 1.7 µM.

What about the TGI (786-0 renal) of the same compound?
The TGI was 3.22 µM.

And the GI50 (SF-539 CNS)?
The GI50 was 1.6 µM.

What about the TGI (SF-539 CNS) of the same compound?
The TGI was 3.06 µM.

What about the GI50 (A549 NSCLC) of the same compound?
Its GI50 is 13.5 µM.

And the TGI (A549 NSCLC)?
Its TGI is 28 µM.

What about the GI50 (OVCAR-8 ovarian) of the same compound?
Its GI50 is 2.28 µM.

And the TGI (OVCAR-8 ovarian)?
Its TGI is 5.53 µM.

What about the GI50 (NCI-H23 lung) of the same compound?
The GI50 was 10.6 µM.

And the TGI (NCI-H23 lung)?
Its TGI is 24.6 µM.

What about the GI50 (NCI-H460 lung) of the same compound?
The GI50 was 2.02 µM.

And the TGI (NCI-H460 lung)?
Its TGI is 4.1 µM.

And the GI50 (SK-MEL-2 melanoma)?
The GI50 was 17 µM.

And the TGI (SK-MEL-2 melanoma)?
The TGI was 32.5 µM.

What about the GI50 (LOX IMVI melanoma) of the same compound?
The GI50 was 1.6 µM.

What about the TGI (LOX IMVI melanoma) of the same compound?
The TGI was 2.99 µM.

What about the GI50 (CCRF-CEM leukemia) of the same compound?
Its GI50 is 2.33 µM.

What about the TGI (CCRF-CEM leukemia) of the same compound?
Its TGI is 6.1 µM.

And the GI50 (RPMI-8226 leukemia)?
Its GI50 is 7.05 µM.

And the TGI (RPMI-8226 leukemia)?
The TGI was 30.5 µM.

And the GI50 (SR leukemia)?
Its GI50 is 1.5 µM.

And the TGI (SR leukemia)?
The TGI was 5.48 µM.

And the GI50 (EKVX NSCLC)?
Its GI50 is 12.2 µM.

What about the TGI (EKVX NSCLC) of the same compound?
The TGI was 25.5 µM.

And the GI50 (HCT-15 colon)?
Its GI50 is 14.2 µM.

What about the TGI (HCT-15 colon) of the same compound?
The TGI was 28.9 µM.

And the GI50 (SNB-75 CNS)?
Its GI50 is 8.46 µM.

What about the TGI (SNB-75 CNS) of the same compound?
The TGI was 21.5 µM.

What about the GI50 (MALME-3M melanoma) of the same compound?
The GI50 was 3.33 µM.

And the TGI (MALME-3M melanoma)?
The TGI was 22.5 µM.

And the GI50 (RXF 393 renal)?
Its GI50 is 1.66 µM.

And the TGI (RXF 393 renal)?
Its TGI is 3.17 µM.

And the GI50 (SNB-19 CNS)?
The GI50 was 9.29 µM.

What about the TGI (SNB-19 CNS) of the same compound?
Its TGI is 28.2 µM.

And the GI50 (PC-3 prostate)?
Its GI50 is 3.26 µM.

What about the TGI (PC-3 prostate) of the same compound?
Its TGI is 15.4 µM.

And the GI50 (OVCAR-5 ovarian)?
Its GI50 is 10.5 µM.

And the TGI (OVCAR-5 ovarian)?
Its TGI is 24 µM.

And the GI50 (HOP-62 NSCLC)?
Its GI50 is 11.1 µM.

And the TGI (HOP-62 NSCLC)?
The TGI was 24.6 µM.

What about the GI50 (SF-295 CNS) of the same compound?
Its GI50 is 3.31 µM.

And the TGI (SF-295 CNS)?
The TGI was 15.3 µM.

And the GI50 (MCF7 breast)?
The GI50 was 3.44 µM.

What about the TGI (MCF7 breast) of the same compound?
Its TGI is 19.5 µM.

And the GI50 (HT29 colon)?
The GI50 was 2.7 µM.

And the TGI (HT29 colon)?
Its TGI is 11 µM.

What about the GI50 (NCI-H226 lung) of the same compound?
Its GI50 is 13 µM.

What about the TGI (NCI-H226 lung) of the same compound?
Its TGI is 31.9 µM.

And the GI50 (A498 renal)?
Its GI50 is 11.3 µM.

And the TGI (A498 renal)?
Its TGI is 25.6 µM.

What about the GI50 (HOP-92 NSCLC) of the same compound?
Its GI50 is 13.3 µM.

What about the TGI (HOP-92 NSCLC) of the same compound?
The TGI was 29.5 µM.

What about the GI50 (NCI/ADR-RES ovarian) of the same compound?
The GI50 was 10.5 µM.

And the TGI (NCI/ADR-RES ovarian)?
The TGI was 25.9 µM.

And the GI50 (KM12 colon)?
The GI50 was 0.695 µM.

And the TGI (KM12 colon)?
Its TGI is 12 µM.

What about the GI50 (COLO 205 colon) of the same compound?
Its GI50 is 1.88 µM.

What about the TGI (COLO 205 colon) of the same compound?
The TGI was 5.05 µM.

What about the GI50 (HL-60(TB) leukemia) of the same compound?
Its GI50 is 16 µM.

And the TGI (HL-60(TB) leukemia)?
The TGI was 37.8 µM.

And the GI50 (HCT-116 colon)?
Its GI50 is 1.65 µM.

What about the TGI (HCT-116 colon) of the same compound?
The TGI was 3.17 µM.

And the GI50 (MDA-MB-231 breast)?
Its GI50 is 2.42 µM.

And the TGI (MDA-MB-231 breast)?
The TGI was 7.33 µM.

What about the GI50 (TK-10 renal) of the same compound?
Its GI50 is 15 µM.

And the TGI (TK-10 renal)?
The TGI was 29.4 µM.

What about the GI50 (ACHN renal) of the same compound?
Its GI50 is 1.74 µM.

What about the TGI (ACHN renal) of the same compound?
Its TGI is 3.41 µM.

And the GI50 (M14 melanoma)?
Its GI50 is 6.12 µM.

What about the TGI (M14 melanoma) of the same compound?
Its TGI is 21.4 µM.

And the GI50 (U251 CNS)?
The GI50 was 3.17 µM.

What about the TGI (U251 CNS) of the same compound?
Its TGI is 10.6 µM.

What about the GI50 (NCI-H522 lung) of the same compound?
Its GI50 is 1.67 µM.

And the TGI (NCI-H522 lung)?
The TGI was 3.94 µM.

What about the GI50 (OVCAR-4 ovarian) of the same compound?
Its GI50 is 11.4 µM.

What about the TGI (OVCAR-4 ovarian) of the same compound?
Its TGI is 26.6 µM.

And the GI50 (SF-268 CNS)?
The GI50 was 3.13 µM.

What about the TGI (SF-268 CNS) of the same compound?
The TGI was 14.1 µM.

What about the GI50 (IGROV1 ovarian) of the same compound?
Its GI50 is 10.9 µM.

And the TGI (IGROV1 ovarian)?
The TGI was 26.2 µM.

And the GI50 (BT-549 breast)?
The GI50 was 12.8 µM.

And the TGI (BT-549 breast)?
Its TGI is 26.1 µM.
